{
  "source": "paper PMC4710668",
  "about": "“Bioactivation of food genotoxicants 5-hydroxymethylfurfural and furfuryl alcohol by sulfotransferases from human, mouse and rat: a comparative study” (Archives of Toxicology, 2014)",
  "assay_in_all_cases": "HMF sulfoconjugation assay",
  "assay_type_in_all_cases": "biochemical",
  "key": {"mSult2b1b": {"target": "T1, mSult2b1b (Mus musculus, UniProt O35400)", "T1 construct": "made in house; host or cells: Salmonella typhimurium TA1538 (cytosolic fraction, enzyme not purified)", "T1 sequence (O35400 1-338)": "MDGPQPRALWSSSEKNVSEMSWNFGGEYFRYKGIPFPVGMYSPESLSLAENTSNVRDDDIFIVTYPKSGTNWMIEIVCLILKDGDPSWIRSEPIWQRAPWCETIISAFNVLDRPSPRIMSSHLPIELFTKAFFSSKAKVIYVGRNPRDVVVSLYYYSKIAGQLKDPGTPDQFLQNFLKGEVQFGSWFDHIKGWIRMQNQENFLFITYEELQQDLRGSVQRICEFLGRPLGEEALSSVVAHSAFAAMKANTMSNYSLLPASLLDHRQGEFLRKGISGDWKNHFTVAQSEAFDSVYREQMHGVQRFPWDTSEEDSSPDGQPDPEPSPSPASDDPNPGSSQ", "description": "(§1) Cytosolic fractions containing individual SULT forms were prepared from transgenic S. typhimurium TA1538. Table S1 in the Supplementary Material provides a summary of the thirty SULTs used in the current study together with references describing the cloning of the respective S. typhimurium TA1538 strains. The expressed SULT forms are denoted with the prefixes h, m and r for human, mouse and rat enzymes, respectively. Bacteria were grown in Luria Broth medium containing ampicillin (100 µg/ml) by stirring for 8 h at 200 revolutions/min at 37 °C. The bacterial suspensions were centrifuged at 5,000 g for 10 min. The sediments were washed twice with 25 ml of 10 mM potassium phosphate buffer (pH 7.4)/50 mM potassium chloride (KCP buffer) and centrifuged again. The pellets were taken up in 800 µl KCP buffer and sonicated thrice for 15 s with 30 s pauses in between. The soluble fraction was attained by centrifuging for 1 h at 100,000 g. The supernatants (in the following termed cytosolic preparations) were frozen at −80 °C. The protein concentrations were determined according to a bicinchoninic acid (BCA) assay protocol. The SULT concentrations in the cytosolic preparations were estimated after electrophoretic separation and immunodetection using inclusion bodies of different SULT forms as standards (Teubner et al. [2007]). The preparation of SULT inclusion bodies and the immunodetection of SULTs is described in the Supplementary Material, which also contains a representative immunoblot of different amounts of rSult1a1standard and a cytosolic preparation of S. typhimurium expressing rSult1a1 (Fig. S1).\n(§2) The reactions were conducted in mixtures of 100 µl containing 25–200 µg protein, 50 mM potassium phosphate buffer (pH 7.4), 5 mM MgCl2, 50 µM PAPS and different concentrations of HMF at 37 °C. Preliminary experiments ensured that measurements were recorded under ‘linear’ conditions, i.e., doubling of protein concentration or incubation time was doubling the amount of sulfate ester formed. The reactions were stopped after 30 min by adding 300 µl ice-cold 2-propanol, mixed and centrifuged at 15,000 g for 10 min.\n(§3) SMF concentrations of the clear supernatants were analyzed by UPLC-MS/MS. The protocol was adapted from the quantification of SMF in plasma samples of HMF-treated mice (Monien et al. [2009]). In short, the supernatants were analyzed using a UPLC system (Waters) connected to a Quattro Premier XE tandem quadrupole mass spectrometer (Waters) using the negative electrospray ionization mode. Samples of 4 µl were injected into a HSS T3 column (1.8 µm, 2.1 × 100 mm; Waters) and eluted with an isocratic flow of 0.35 ml/min 10 mM ammonium acetate/methanol (95:5). The fragmentation reactions of SMF yielding two principal ions, the sulfate ion radical (m/z = 204.9 → 96.0) and the protonated sulfonate ion (m/z = 204.9 → 81.0) were monitored. The tune parameters were as follows: temperature of the electrospray source 120 °C; desolvation temperature 475 °C; desolvation gas nitrogen (800 l/h); cone gas nitrogen (100 l/h); collision gas argon (indicated cell pressure ~5 × 10^−3 mbar). For the fragmentation of SMF, collision energies were 20 and 23 eV for the transitions m/z = 204.9 → 81.0 and m/z = 204.9 → 96.0, respectively. The dwell time was set to 100 ms, and capillary voltage was set to 0.35 kV. The cone and RF1 lens voltages were 32 and 0.2 V, respectively. SMF was quantified using an external calibration line that was linear in the concentration range of 1.0 nM (4 fmol/injection) to 2,500 (10 pmol/injection) SMF (r ^2 ≥ 0.99). Data acquisition and handling were performed with MassLynx 4.1 software (Waters). The limit of detection (LOD) for this technique of 2.5 nM SMF has been reported (Monien et al. [2009]). In the current study, this corresponds to 10 fmol SMF per injection or a reaction rate of 0.5 pmol SMF/mg/min."}, "mSult1b1": {"target": "T2, mSult1b1 (Mus musculus, UniProt Q9QWG7)", "T2 construct": "made in house; host or cells: Salmonella typhimurium TA1538 (cytosolic fraction, enzyme not purified)", "T2 sequence (Q9QWG7 whole entry)": "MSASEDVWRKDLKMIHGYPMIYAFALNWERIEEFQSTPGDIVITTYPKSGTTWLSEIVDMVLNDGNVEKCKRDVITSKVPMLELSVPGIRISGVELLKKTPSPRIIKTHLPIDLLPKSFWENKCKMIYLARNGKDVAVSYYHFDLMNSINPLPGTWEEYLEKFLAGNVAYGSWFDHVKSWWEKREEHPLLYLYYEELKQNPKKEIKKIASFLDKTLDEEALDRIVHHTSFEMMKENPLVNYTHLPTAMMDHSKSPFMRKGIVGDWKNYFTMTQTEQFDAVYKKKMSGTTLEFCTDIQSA", "description": "as §1, §2, §3"}, "rSult2a1": {"target": "T3, rSult2a1 (Rattus norvegicus, UniProt P15709)", "T3 construct": "made in house; host or cells: Salmonella typhimurium TA1538 (cytosolic fraction, enzyme not purified)", "T3 sequence (P15709 1-284)": "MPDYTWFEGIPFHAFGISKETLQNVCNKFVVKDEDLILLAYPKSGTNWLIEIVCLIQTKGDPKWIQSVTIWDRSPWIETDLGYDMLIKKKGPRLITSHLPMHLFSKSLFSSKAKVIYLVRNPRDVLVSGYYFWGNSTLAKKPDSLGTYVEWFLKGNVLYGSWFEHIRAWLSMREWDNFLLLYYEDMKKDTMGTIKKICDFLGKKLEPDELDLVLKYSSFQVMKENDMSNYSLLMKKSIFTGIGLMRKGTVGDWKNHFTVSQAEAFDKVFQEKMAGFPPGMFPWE", "description": "as §1, §2, §3"}, "hSULT1C2": {"target": "T4, hSULT1C2 (Homo sapiens, UniProt O75897)", "T4 construct": "made in house; host or cells: Salmonella typhimurium TA1538 (cytosolic fraction, not purified)", "T4 sequence (O75897 whole entry)": "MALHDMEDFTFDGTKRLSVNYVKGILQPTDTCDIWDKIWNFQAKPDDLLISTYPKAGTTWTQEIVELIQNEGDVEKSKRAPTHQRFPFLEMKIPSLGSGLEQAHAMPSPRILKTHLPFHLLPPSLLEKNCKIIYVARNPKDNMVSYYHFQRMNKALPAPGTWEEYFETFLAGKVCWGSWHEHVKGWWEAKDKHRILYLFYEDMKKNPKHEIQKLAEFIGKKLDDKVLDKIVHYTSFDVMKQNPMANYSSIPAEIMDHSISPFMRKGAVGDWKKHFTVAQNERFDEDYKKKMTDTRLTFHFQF", "description": "as §1, §2, §3"}, "hSULT1A1": {"target": "T5, hSULT1A1 (Homo sapiens, UniProt P50225)", "T5 construct": "made in house; host or cells: Salmonella typhimurium TA1538 (cytosolic fraction, not purified)", "T5 sequence (P50225 whole entry)": "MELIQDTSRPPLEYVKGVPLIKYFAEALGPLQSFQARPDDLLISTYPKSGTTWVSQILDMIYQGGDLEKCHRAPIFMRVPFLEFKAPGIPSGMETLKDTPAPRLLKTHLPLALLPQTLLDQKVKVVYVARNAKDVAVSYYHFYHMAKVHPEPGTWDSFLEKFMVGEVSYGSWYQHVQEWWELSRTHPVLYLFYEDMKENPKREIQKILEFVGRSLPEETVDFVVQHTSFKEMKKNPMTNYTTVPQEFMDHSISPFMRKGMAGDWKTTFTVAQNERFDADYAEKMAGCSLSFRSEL", "description": "as §1, §2, §3"}, "mSult1c2": {"target": "T6, mSult1c2 (Mus musculus, UniProt Q9D939)", "T6 construct": "made in house; host or cells: Salmonella typhimurium TA1538 (cytosolic fraction, enzyme not purified)", "T6 sequence (Q9D939 whole entry)": "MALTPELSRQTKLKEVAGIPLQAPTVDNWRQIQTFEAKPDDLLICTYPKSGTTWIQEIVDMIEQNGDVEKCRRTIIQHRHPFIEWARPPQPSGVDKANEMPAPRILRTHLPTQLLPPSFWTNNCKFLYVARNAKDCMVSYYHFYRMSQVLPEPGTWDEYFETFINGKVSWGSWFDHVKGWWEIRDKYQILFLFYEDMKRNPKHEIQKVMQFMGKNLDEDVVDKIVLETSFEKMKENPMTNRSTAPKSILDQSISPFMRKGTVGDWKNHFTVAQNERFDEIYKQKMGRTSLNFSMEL", "description": "as §1, §2, §3"}, "[1]": {"conditions": "HMF sulfoconjugation, Michaelis-Menten fit"}},
  "data": [
    {"smiles": "O=Cc1ccc(CO)o1", "note": "[HMF, 5-Hydroxymethylfurfural]", "values": [
      {"measurement": "Rate of sulfoconjugation", "setting": "mSult2b1b; 0.1 mM HMF", "value": "<0.5", "unit": "pmol/mg/min"},
      {"measurement": "Rate of sulfoconjugation", "setting": "mSult2b1b; 1 mM HMF", "value": "<0.5", "unit": "pmol/mg/min"},
      {"measurement": "Rate of sulfoconjugation", "setting": "mSult2b1b; 10 mM HMF", "value": "<0.5", "unit": "pmol/mg/min"},
      {"measurement": "Rate of sulfoconjugation", "setting": "mSult2b1b; 100 mM HMF", "value": "<0.5", "unit": "pmol/mg/min"},
      {"measurement": "Rate of sulfoconjugation", "setting": "mSult1b1; 0.1 mM HMF", "value": "0.9 ± 0.1", "unit": "pmol/mg/min"},
      {"measurement": "Rate of sulfoconjugation", "setting": "mSult1b1; 1 mM HMF", "value": "8.2 ± 0.1", "unit": "pmol/mg/min"},
      {"measurement": "Rate of sulfoconjugation", "setting": "mSult1b1; 10 mM HMF", "value": "66.2 ± 6.8", "unit": "pmol/mg/min"},
      {"measurement": "Rate of sulfoconjugation", "setting": "mSult1b1; 100 mM HMF", "value": "64.4 ± 5.0", "unit": "pmol/mg/min"},
      {"measurement": "K M", "setting": "mSult1b1; [1]", "value": "9.5 ± 1.1", "unit": "mM"},
      {"measurement": "Rate of sulfoconjugation", "setting": "rSult2a1; 0.1 mM HMF", "value": "<0.5", "unit": "pmol/mg/min"},
      {"measurement": "Rate of sulfoconjugation", "setting": "rSult2a1; 1 mM HMF", "value": "1.8 ± 0.1", "unit": "pmol/mg/min"},
      {"measurement": "Rate of sulfoconjugation", "setting": "rSult2a1; 10 mM HMF", "value": "17.2 ± 0.6", "unit": "pmol/mg/min"},
      {"measurement": "Rate of sulfoconjugation", "setting": "rSult2a1; 100 mM HMF", "value": "58.9 ± 4.6", "unit": "pmol/mg/min"},
      {"measurement": "Rate of sulfoconjugation", "setting": "hSULT1C2; 0.1 mM HMF", "value": "1.1 ± 0.3", "unit": "pmol/mg/min"},
      {"measurement": "Rate of sulfoconjugation", "setting": "hSULT1C2; 1 mM HMF", "value": "14.0 ± 1.8", "unit": "pmol/mg/min"},
      {"measurement": "Rate of sulfoconjugation", "setting": "hSULT1C2; 10 mM HMF", "value": "115 ± 14", "unit": "pmol/mg/min"},
      {"measurement": "Rate of sulfoconjugation", "setting": "hSULT1C2; 100 mM HMF", "value": "285 ± 71", "unit": "pmol/mg/min"},
      {"measurement": "K M", "setting": "hSULT1C2; [1]", "value": "18.8 ± 5.4", "unit": "mM"},
      {"measurement": "ratio of HMF sulfoconjugation efficiency, hSULT1A1 vs hSULT1C2", "setting": "hSULT1A1", "value": "about 19 times"},
      {"measurement": "Rate of sulfoconjugation", "setting": "hSULT1A1; 0.1 mM HMF", "value": "20.4 ± 2.8", "unit": "pmol/mg/min"},
      {"measurement": "Rate of sulfoconjugation", "setting": "hSULT1A1; 1 mM HMF", "value": "171 ± 18", "unit": "pmol/mg/min"},
      {"measurement": "Rate of sulfoconjugation", "setting": "hSULT1A1; 10 mM HMF", "value": "641 ± 100", "unit": "pmol/mg/min"},
      {"measurement": "Rate of sulfoconjugation", "setting": "hSULT1A1; 100 mM HMF", "value": "699 ± 170", "unit": "pmol/mg/min"},
      {"measurement": "K M", "setting": "hSULT1A1; [1]", "value": "3.2 ± 0.4", "unit": "mM"},
      {"measurement": "Rate of sulfoconjugation", "setting": "mSult1c2; 0.1 mM HMF", "value": "<0.5", "unit": "pmol/mg/min"},
      {"measurement": "Rate of sulfoconjugation", "setting": "mSult1c2; 1 mM HMF", "value": "2.0 ± 0.2", "unit": "pmol/mg/min"},
      {"measurement": "Rate of sulfoconjugation", "setting": "mSult1c2; 10 mM HMF", "value": "16.2 ± 1.1", "unit": "pmol/mg/min"},
      {"measurement": "Rate of sulfoconjugation", "setting": "mSult1c2; 100 mM HMF", "value": "92.4 ± 6.7", "unit": "pmol/mg/min"}
    ]}
  ]
}
